According to USRE38761E1, “Styryl compounds which inhibit EGF receptor protein tyrosine kinase” (Yissum Research Development Company of the Hebrew …, priority 1987, dated 2005):
Like-named read-outs stand apart in the source and are kept apart here. Values belong to the molecule of their own block, whether it stands above or below them.

Tests used:
EGF receptor [1] = target: T1, EGF receptor (Homo sapiens, UniProt P00533); experiment: EGF-receptor kinase (PTK) activity inhibition on extracted EGF receptors, poly(GAT) substrate, Dixon analysis; assay type: biochemical; parameters: EGF receptors were prepared from A431 cells (obtained from the ATCC) and PTK activity of these receptors was assayed; endogenous in cells; host or cells: A431 cells (ATCC); conditions: EGF receptors from A431 cells; copoly Glu6Ala3Tyr1 substrate; analysis according to Dixon; read-out: Klnh, dissociation constant of the PTK-inhibitor complex
T1 sequence (P00533 25-1210): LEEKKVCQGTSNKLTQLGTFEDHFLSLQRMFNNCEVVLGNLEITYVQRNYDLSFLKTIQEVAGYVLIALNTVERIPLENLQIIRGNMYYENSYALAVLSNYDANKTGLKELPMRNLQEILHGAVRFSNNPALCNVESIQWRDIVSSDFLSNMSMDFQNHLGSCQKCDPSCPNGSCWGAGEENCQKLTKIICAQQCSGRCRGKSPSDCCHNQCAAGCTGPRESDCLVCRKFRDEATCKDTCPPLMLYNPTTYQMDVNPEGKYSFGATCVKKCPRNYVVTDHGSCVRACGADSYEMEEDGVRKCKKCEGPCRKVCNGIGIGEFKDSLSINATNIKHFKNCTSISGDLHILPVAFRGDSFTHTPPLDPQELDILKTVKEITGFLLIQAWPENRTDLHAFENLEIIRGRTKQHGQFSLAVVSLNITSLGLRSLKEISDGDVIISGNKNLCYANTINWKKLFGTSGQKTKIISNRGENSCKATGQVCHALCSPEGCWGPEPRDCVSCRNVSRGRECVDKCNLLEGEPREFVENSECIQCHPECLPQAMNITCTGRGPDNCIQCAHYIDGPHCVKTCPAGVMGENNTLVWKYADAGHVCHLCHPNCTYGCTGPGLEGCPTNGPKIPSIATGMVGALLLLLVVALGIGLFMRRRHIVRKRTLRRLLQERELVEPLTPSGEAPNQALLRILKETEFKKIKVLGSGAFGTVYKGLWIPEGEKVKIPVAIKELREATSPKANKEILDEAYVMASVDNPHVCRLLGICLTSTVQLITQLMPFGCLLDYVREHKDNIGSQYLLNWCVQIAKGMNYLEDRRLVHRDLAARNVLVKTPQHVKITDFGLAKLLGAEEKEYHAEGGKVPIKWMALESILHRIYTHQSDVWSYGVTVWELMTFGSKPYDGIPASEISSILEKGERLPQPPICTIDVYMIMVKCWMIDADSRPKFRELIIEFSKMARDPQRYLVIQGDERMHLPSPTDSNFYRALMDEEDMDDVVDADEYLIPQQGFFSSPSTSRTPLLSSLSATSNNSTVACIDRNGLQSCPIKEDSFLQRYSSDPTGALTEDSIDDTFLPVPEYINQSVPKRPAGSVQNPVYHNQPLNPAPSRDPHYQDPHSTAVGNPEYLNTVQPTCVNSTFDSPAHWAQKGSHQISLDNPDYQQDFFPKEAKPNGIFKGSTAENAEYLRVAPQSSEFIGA
Procedure: The different KInh values were determined by the analysis according to Dixon.
EGF-receptor purification is based on the procedure of Yarden and Schlessinger. A431 cells are grown in 80 cm^2 bottles in confluency (2×10^7 cells per bottle). The cells are washed twice with PBS and harvested with PBS containing 1.0 mmol EDTA (1 hour at 37° C.), and centrifuged at 600 g for 10 minutes. The cells are solubilized in 1 ml per 2×10^7 cells of cold solubilization buffer (50 mmol Hepes buffer, pH 7.6, 1% Triton X-100, 150 mmol NaCl, 5 mmol EGTA, 1 mmol PMSF, 50 μg/ml aprotinin, 25 mmol benzamidine, 5 μg/ml leupeptin, and 10 μg/ml soybean trypsin inhibitor) for 20 minutes at 4° C. After centrifugation at 100000g for 30 minutes, the supernatant is loaded onto a WGA-agarose column (100 μl of packed resin per 2×10^7 cells) and shaken for 2 hours at 4° C. The unabsorbed material is removed and the resin washed twice with HTN buffer (50 mmol Hepes, pH 7.6, 0.1% Triton X-100, 150 mmol NaCl), twice with HTN buffer containing 1 M NaCl, and twice with HTNG buffer (50 mmol Hepes, pH 7.6, 0.1% Triton X-100, 150 mmol NaCl, and 10% glycerol). The EGF receptor is eluted batchwise with HTNG buffer containing 0.5 M N-acetyl-D-glucosamine (200 μl per […] cells). The eluted material is stored in aliquots at −70° C. and diluted before use with TMTNG buffer (50 mmol Tris-Mes buffer, pH 7.6, 0.1% Triton X-100, 150 mmol NaCl, 10% glycerol).
The concentration of EGF in the assay is 300 nM in a final volume of 40 μl. After 5, 10 or 20 minutes, aliquots of 25 μl are applied onto Whatman 3-mm paper cuttings, which are then soaked in cold 10% TCA containing 0.01 M sodium pyrophosphate. After being washed overnight at 4° C., the paper cuttings are dried and counted, measuring ^32P Cerenkov radiation. […] The EGF response for the poly(GAT) phosphorylation is graphed.

[2] = system: cells incubated with EGF or serum; experiment: Inhibition of cell proliferation as measured by inhibition of DNA synthesis ([3H]thymidine incorporation); assay type: cell-based
Procedure: Cells were seeded at 1×10^5 cells per well in 24-well Costar dishes pre-coated with human fibronectin (by incubating for 30 minutes at room temperature with 10 μg/0.5 ml/well). The cells were grown to confluence for 2 days. The medium was changed to DMEM containing 0.5 calf serum for 36-48 hours and the cells were then incubated with EGF (Toyobo, New York, N.Y.) (20 ng/ml) or serum (10% calf serum) and different concentrations of the inhibitory compounds. […] TCA precipitable material was quantitated by scintillation counting (C). […]
Cells termed HER 14 and K721A (=DK) were prepared by transfecting NIH3T3 cells (clone 2.2) (From C. Fryling, NCI, NIH), which lack endogenous EGF-receptors, with cDNA constructs of wild-type EGF-receptor or mutant EGF-receptor lacking tyrosine kinase activity (in which Lys 721 at the ATP-binding site was replaced by an Ala residue, respectively). All cells were grown in DMEM with 10% calf serum (Hyclone, Logan, Utah).

EGF receptor [3] = target: T1, EGF receptor; conditions: membranes of A431 cells; reported; cited from earlier work
[4] = [3H]thymidine incorporation halved, cells stimulated with EGF (20 ng/ml), read-out: IC50 - EGF
[5] = [3H]thymidine incorporation halved, cells stimulated with serum (10% calf serum), read-out: IC50 - FCS

Structure (SMILES): COc1cc(C=C(C#N)C#N)cc(O)c1O [Example 2, 3-methoxy-4,5-dihydroxybenzylidene malononitrile]
Ki (EGF receptor [1]): 2.2 ± 0.3 µM

Structure (SMILES): CC(C)(C)c1cc(C=C(C#N)C#N)cc(C(C)(C)C)c1O [Example 3, 3,5-di-tert butyl-4-hydroxybenzylidene malononitrile]
IC50 ([2]; read-out: IC50 - EGF): 0.1 µM | IC50 ([2]; read-out: IC50 - FCS): 0.2 µM

Structure (SMILES): N#CC(C#N)=C(O)c1cc(O)c(O)c(O)c1 [Example 5, α-Hydroxy-3,4,5-trihydroxybenzylidene malononitrile]
Ki (EGF receptor [1]): 4.5 µM

Ki (EGF receptor [1]): 3.5 ± 0.6 µM
Structure (SMILES): N#CC(=Cc1ccc(O)c(O)c1)C(N)=O [Example 6, α-Cyano-3,4-dihydroxycinnamamide]

Ki (EGF receptor [1]): 23.6 µM
Structure (SMILES): N#CC(=Cc1ccc(O)c(O)c1)C(=O)O [Example 10, α-Cyano-3,4-dihydroxycinnamic acid]

Structure (SMILES): N#CC(C#N)=Cc1ccc(C=O)cc1 [Example 15, 4-Formylbenzylidene malononitrile]
Ki (EGF receptor [1]): 20 µM

Structure (SMILES): N#CC(=Cc1ccc(O)c(O)c1)C(=O)Nc1ccccc1 [Example 25, N-Phenyl-α-cyano-3,4-dihydroxycinnamamide]
IC50 [2, 4]: 30 µM | IC50 [2, 5]: 100 µM

Structure (SMILES): CC(C)(C)c1cc(C=C(C#N)C(N)=S)cc(C(C)(C)C)c1 [Example 26, α-Cyano-β-(3,5-di-tertbutylphenyl)propenethioamide]
IC50 [2, 4]: 20 µM | IC50 [2, 5]: 100 µM

Structure (SMILES): O=CN/C=C/c1cc(O)ccc1O [erbstatin]
inhibition of EGF receptor autophosphorylation (EGF receptor [3]): inhibits the autophosphorylation of the EGF receptor
